In ChEMBL document CHEMBL6127086, “Recent advances in dual PROTACs degrader strategies for disease treatment” (Eur J Med Chem, 2024):
Starred links: 1 amine or outer side, 2 acyl side, 3 side chain; linkers in the order of their positions; H or OH if unused. Non-standard residues stand in square brackets, D forms with d. Residues, ends and D or L forms follow the SMILES beside them. *: point of attachment. X1 = O=C([C@H](Cc1ccc(C(F)(F)P(=O)(O)O)cc1)O[*:1])[*:2]; NHCH2(1,3-C6H4)CH2CO = O=C(Cc1cccc(CN[*:1])c1)[*:2]; Phenylacetyl(4-OH,3-OMe) = COc1cc(CC(=O)*)ccc1O; Benzoyl(3-Br,4-Me) = Cc1ccc(C(=O)*)cc1Br; X2 = Cc1ncsc1-c1ccc([C@@H](C)N*)cc1; Hyp = O=C(O)[C@@H]1C[C@@H](O)CN1; Tle = CC(C)(C)[C@H](N)C(=O)O

Experiments:
[1] = biological target: Protein cereblon/Cyclin-dependent kinase 4 (Homo sapiens, UniProt P11802+Q96SW2); assay: Protac activity at CRBN/CDK4 in human MDA-MB-231 cells assessed as induction of CDK4 degradation measured after 6 hrs by Western blot analysis; format: cell-based
[2] = biological target: Protein cereblon/Cyclin-dependent kinase 6 (Homo sapiens, UniProt Q00534+Q96SW2); assay: Protac activity at CRBN/CDK6 in human MDA-MB-231 cells assessed as induction of CDK6 degradation measured after 18 hrs by Western blot analysis; format: cell-based
[3] = Antiproliferative activity against human MINO cells assessed as reduction in cell viability incubated fro 72 hrs by Celltiter-glo reagent based analysis; format: functional
[4] = biological target: von Hippel-Lindau disease tumor suppressor/WD repeat-containing protein 5 (Homo sapiens, UniProt P61964+P40337); assay: PROTAC activity at VHL/WDR5 in human MIA PaCa-2 cells assessed as degradation of WDR5 protein incubated for 18 hrs by Western blotting analysis; format: cell-based
[5] = biological target: T1, Cereblon/Ikaros (Homo sapiens, UniProt Q96SW2+Q13422); assay: PROTAC activity at CRBN/IKZF1 in human MV4-11 cells assessed as degradation of IKZF1 protein incubated for 18 hrs by Western blotting analysis; format: cell-based
[6] = biological target: T1, Cereblon/Ikaros; assay: PROTAC activity at CRBN/IKZF1 in human MV4-11 cells assessed as maximum degradation of protein at 0.1 uM incubated for 18 hrs by Western blotting analysis relative to control; format: cell-based
[7] = biological target: T2, Protein cereblon/Tyrosine-protein phosphatase non-receptor type 1 (Homo sapiens, UniProt P18031+Q96SW2); assay: PROTAC activity at PTP1B/CRBN human HepG2 cells assessed as protein degradation incubated for 16 hrs by Western blot analysis; format: cell-based
[8] = biological target: T2, Protein cereblon/Tyrosine-protein phosphatase non-receptor type 1; assay: PROTAC activity at PTP1B/CRBN human HepG2 cells assessed as protein degradation incubated for 24 hrs by Western blot analysis; format: cell-based
[9] = biological target: Protein cereblon/Bromodomain-containing protein 2 (Homo sapiens, UniProt P25440+Q96SW2); assay: PROTAC activity at CRBN/BRD2 in human MV4-11 cells assessed as degradation of BRD2 protein incubated for 4 hrs by Western blotting assay; format: cell-based
[10] = biological target: Protein cereblon/Bromodomain-containing protein 3 (Homo sapiens, UniProt Q15059+Q96SW2); assay: PROTAC activity at CRBN/BRD3 in human MV4-11 cells assessed as degradation of BRD3 protein incubated for 4 hrs by Western blotting assay; format: cell-based
[11] = biological target: T3, Protein cereblon/Bromodomain-containing protein 4 (Homo sapiens, UniProt O60885+Q96SW2); assay: PROTAC activity at CRBN/BRD4 (unknown origin) expressed in HEK293 cells assessed as induction of BRD4 degradation measured after 4 hrs by Western blot analysis; format: cell-based
[12] = biological target: T3, Protein cereblon/Bromodomain-containing protein 4; assay: PROTAC activity at CRBN/BRD4 (unknown origin) expressed in HEK293 cells assessed as induction of BRD4 degradation incubated for 6 hrs by Western blot analysis; format: cell-based
[13] = test system: RKO; assay: Antiproliferative activity against human RKO cells assessed as reduction in cell viability by Celltiter-glo reagent based analysis; format: functional
[14] = biological target: T4, von Hippel-Lindau disease tumor suppressor/Bromodomain-containing protein 2 (Homo sapiens, UniProt P25440+P40337); assay: PROTAC activity at human VHL/BRD2 in human HeLa cells assessed as degradation of BRD2 incubated for 16 hrs by Western blot analysis; format: cell-based
[15] = biological target: von Hippel-Lindau disease tumor suppressor/Bcl-2-like protein 1 (Homo sapiens, UniProt Q07817+P40337); assay: PROTAC activity at VHL/BCL-XL in human Jurkat cells assessed as induction of BCL-XL degradation incubated for 16 hrs by immunoblot analysis; format: cell-based
[16] = test system: OVCAR-8; assay: Antiproliferative activity against human OVCAR-8 cells assessed as inhibition of growth rate measured for 72 hrs; format: functional
[17] = biological target: von Hippel-Lindau disease tumor suppressor/Bromodomain-containing protein 4 (Homo sapiens) (UniProt O60885+P40337); assay: PROTAC activity at human VHL/BRD4 in human HT-1080 cells assessed as maximum degradation of BRD4 at 0.2 uM incubated for 24 hrs by Western blot analysis relative to control; format: cell-based
[18] = biological target: Protein cereblon/CREB-binding protein (Homo sapiens) (UniProt Q92793+Q96SW2); assay: PROTAC activity at CRBN/CBP in human MV4-11 cells assessed as induction of protein degradation by measuring maximal degradation at 250 nM incubated for 24 hrs by Western blotting analysis relative to control; format: cell-based
[19] = biological target: T4, von Hippel-Lindau disease tumor suppressor/Bromodomain-containing protein 2; assay: PROTAC activity at VHL/BRD2 in human 22Rv1 cells assessed as degradation of BRD2 incubated for 16 hrs by Western blot analysis; format: cell-based
[20] = test system: CWR22R; assay: Antiproliferative activity against human 22Rv1 cells assessed as reduction in cell viability incubated for 72 hrs by Celltiter- Glo assay; format: functional, cell-based; settings: 22Rv1, 72 h
[21] = test system: VCaP; assay: Antiproliferative activity against human VCaP cells assessed as reduction in cell viability incubated for 72 hrs by Celltiter- Glo assay; format: functional, cell-based
[22] = Antiproliferative activity against human LNCaP-95 cells assessed as reduction in cell viability incubated for 72 hrs by Celltiter- Glo assay; format: functional, cell-based; settings: LNCaP-95, 72 h

T3 sequence (Q96SW2 whole entry, looked up, other chains not shown): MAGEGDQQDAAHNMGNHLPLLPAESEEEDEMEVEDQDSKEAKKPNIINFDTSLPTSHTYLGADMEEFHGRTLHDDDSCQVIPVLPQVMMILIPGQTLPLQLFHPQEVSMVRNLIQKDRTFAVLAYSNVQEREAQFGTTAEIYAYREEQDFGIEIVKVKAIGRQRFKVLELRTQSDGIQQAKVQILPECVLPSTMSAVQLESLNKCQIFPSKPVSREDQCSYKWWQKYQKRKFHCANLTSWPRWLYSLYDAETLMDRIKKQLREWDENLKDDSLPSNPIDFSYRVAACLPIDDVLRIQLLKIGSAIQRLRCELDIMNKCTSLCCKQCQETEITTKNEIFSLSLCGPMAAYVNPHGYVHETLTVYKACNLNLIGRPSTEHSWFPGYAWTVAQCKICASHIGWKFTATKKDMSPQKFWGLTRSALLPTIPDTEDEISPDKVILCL
T2 sequence (P18031 whole entry): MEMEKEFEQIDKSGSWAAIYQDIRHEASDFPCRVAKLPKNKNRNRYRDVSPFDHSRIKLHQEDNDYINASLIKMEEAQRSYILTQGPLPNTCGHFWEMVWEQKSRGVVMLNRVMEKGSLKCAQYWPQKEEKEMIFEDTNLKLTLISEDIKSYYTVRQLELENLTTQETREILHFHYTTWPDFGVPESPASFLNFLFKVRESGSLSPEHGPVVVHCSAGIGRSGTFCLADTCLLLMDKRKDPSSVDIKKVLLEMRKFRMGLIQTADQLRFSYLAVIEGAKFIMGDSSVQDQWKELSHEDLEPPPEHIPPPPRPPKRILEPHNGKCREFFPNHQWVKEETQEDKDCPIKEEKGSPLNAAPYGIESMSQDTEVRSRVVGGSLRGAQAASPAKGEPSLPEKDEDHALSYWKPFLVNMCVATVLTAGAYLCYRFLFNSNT
T2 sequence (Q96SW2 whole entry): as the sequence (Q96SW2 whole entry, looked up, other chains not shown) above
T4 sequence (P25440 whole entry): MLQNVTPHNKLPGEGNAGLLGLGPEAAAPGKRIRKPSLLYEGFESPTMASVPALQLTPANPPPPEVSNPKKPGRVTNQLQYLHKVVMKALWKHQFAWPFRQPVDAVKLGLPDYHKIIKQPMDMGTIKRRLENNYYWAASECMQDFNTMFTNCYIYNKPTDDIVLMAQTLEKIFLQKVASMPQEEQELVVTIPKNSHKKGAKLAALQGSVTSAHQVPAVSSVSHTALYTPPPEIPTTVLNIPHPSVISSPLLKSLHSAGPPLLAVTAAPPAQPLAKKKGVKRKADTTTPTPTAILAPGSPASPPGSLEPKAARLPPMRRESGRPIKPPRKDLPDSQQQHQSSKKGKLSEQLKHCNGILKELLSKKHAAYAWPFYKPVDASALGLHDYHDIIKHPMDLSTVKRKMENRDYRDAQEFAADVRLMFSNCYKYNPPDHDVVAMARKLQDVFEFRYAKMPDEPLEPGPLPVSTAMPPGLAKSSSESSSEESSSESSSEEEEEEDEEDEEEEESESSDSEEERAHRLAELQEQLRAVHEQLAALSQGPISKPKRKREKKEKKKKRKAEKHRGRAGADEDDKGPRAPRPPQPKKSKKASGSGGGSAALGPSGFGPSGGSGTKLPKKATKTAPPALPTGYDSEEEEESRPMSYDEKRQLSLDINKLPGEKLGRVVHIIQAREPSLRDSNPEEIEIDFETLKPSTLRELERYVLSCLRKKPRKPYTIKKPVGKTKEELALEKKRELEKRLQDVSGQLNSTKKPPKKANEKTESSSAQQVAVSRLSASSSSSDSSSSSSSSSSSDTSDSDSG
T4 sequence (P40337 whole entry): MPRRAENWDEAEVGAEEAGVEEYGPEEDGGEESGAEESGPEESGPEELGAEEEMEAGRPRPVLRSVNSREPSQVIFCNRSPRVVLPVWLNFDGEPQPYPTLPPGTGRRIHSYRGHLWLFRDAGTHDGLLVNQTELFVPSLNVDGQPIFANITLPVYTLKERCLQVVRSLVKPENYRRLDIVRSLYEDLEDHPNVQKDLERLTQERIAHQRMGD
von Hippel-Lindau disease tumor suppressor/Bromodomain-containing protein 4 (Homo sapiens), sequence (P40337 whole entry, looked up, other chains not shown): as the sequence (P40337 whole entry) above
T1 sequence (Q96SW2 whole entry): as the sequence (Q96SW2 whole entry, looked up, other chains not shown) above
T1 sequence (Q13422 whole entry): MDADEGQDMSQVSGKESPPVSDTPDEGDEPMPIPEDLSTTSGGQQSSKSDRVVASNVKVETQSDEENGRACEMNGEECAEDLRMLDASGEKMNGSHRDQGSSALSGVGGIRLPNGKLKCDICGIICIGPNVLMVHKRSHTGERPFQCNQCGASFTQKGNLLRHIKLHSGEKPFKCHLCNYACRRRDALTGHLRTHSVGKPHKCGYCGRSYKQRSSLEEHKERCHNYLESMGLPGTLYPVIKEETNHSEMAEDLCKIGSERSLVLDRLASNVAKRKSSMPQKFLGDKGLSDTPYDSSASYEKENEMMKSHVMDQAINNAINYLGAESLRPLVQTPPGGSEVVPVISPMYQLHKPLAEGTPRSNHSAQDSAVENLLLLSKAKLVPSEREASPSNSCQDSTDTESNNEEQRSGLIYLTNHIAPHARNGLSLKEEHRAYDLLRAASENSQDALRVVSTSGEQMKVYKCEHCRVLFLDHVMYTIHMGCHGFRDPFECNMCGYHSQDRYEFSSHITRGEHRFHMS
von Hippel-Lindau disease tumor suppressor/Bcl-2-like protein 1, sequence (Q07817 whole entry): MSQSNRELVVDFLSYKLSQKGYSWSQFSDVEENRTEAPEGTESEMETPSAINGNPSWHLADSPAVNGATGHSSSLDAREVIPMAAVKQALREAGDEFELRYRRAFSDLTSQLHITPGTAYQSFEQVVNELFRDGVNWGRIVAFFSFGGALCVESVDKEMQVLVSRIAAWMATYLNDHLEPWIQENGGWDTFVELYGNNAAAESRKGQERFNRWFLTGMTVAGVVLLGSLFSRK
von Hippel-Lindau disease tumor suppressor/Bcl-2-like protein 1, sequence (P40337 whole entry): as the sequence (P40337 whole entry) above
Protein cereblon/Cyclin-dependent kinase 6, sequence (Q00534 whole entry): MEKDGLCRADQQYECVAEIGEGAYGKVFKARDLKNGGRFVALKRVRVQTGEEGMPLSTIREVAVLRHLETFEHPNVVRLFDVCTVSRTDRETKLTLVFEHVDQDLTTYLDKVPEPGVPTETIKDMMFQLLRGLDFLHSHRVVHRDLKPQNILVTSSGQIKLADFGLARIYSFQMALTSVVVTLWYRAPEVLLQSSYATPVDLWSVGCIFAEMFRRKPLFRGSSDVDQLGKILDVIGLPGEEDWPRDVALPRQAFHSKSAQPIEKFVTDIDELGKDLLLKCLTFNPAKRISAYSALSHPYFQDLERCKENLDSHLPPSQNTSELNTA
Protein cereblon/Cyclin-dependent kinase 6, sequence (Q96SW2 whole entry): as the sequence (Q96SW2 whole entry, looked up, other chains not shown) above
Protein cereblon/Bromodomain-containing protein 3, sequence (Q15059 whole entry): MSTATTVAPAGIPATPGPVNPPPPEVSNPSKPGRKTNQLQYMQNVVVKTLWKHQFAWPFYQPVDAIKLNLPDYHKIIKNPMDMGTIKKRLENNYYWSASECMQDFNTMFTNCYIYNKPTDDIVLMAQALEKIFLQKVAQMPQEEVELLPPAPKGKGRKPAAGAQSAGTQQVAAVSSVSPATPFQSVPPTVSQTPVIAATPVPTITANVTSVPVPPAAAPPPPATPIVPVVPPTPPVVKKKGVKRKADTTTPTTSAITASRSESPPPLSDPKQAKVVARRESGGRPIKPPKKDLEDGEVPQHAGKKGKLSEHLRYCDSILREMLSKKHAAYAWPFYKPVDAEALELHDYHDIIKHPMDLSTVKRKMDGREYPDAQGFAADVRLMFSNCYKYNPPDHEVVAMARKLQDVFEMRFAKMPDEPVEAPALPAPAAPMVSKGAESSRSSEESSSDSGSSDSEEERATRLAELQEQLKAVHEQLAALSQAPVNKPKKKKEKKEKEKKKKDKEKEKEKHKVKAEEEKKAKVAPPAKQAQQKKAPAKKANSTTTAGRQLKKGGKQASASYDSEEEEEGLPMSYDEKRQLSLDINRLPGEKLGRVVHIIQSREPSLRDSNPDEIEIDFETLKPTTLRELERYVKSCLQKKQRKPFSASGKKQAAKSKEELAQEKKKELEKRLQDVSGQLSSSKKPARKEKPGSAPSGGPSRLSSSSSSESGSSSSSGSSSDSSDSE
Protein cereblon/Bromodomain-containing protein 3, sequence (Q96SW2 whole entry): as the sequence (Q96SW2 whole entry, looked up, other chains not shown) above
Protein cereblon/Cyclin-dependent kinase 4, sequence (P11802 whole entry): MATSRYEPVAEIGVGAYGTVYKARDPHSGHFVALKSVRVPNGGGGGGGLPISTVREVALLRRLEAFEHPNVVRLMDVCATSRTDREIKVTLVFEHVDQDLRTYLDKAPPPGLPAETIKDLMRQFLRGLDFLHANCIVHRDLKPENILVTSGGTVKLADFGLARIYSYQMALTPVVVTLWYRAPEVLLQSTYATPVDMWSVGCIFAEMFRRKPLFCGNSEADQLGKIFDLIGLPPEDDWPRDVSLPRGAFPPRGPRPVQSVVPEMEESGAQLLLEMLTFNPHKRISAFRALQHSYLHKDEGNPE
Protein cereblon/Cyclin-dependent kinase 4, sequence (Q96SW2 whole entry): as the sequence (Q96SW2 whole entry, looked up, other chains not shown) above

For `CN(C)C(=O)c1cc2cnc(Nc3ccc(N4CCN(Cc5cn(CCCCCC(=O)Nc6cccc7c6C(=O)N(C6CCC(=O)NC6=O)C7=O)nn5)CC4)cn3)nc2n1C1CCCC1` (configuration not stated), which DC50 [1] is on record?
The DC50 was 0.097 µM.

And the DC50 [2]?
Its DC50 is 0.3 µM.

For `Cc1sc2c(c1C)C(c1ccc(Cl)cc1)=N[C@@H](CC(=O)Nc1ccc(OCCOCCOCCOCCNc3cccc4c3C(=O)N(C3CCC(=O)NC3=O)C4=O)cc1)c1nnc(C)n1-2` (some centres not stated), which IC50 [3] is on record?
The IC50 was 0.0145 µM.

For `CN1CCN(c2ccc(-c3cccc(CN4CCN(CCNC(=O)CCCCCCCNc5cccc6c5C(=O)N(C5CCC(=O)NC5=O)C6=O)CC4)c3)cc2NC(=O)c2c[nH]c(=O)cc2C(F)(F)F)CC1` (configuration not stated), which DC50 [4] is on record?
Its DC50 is 0.042 µM.

And the DC50 [5]?
The DC50 was 0.5 µM.

And the Emax [6]?
Its Emax is 90%.

For `COc1cc(CC(=O)N[C@@H](Cc2ccccc2)C(=O)O[C@@H](Cc2ccc(C(F)(F)P(=O)(O)O)cc2)C(=O)N[C@@H](CCCCNC(=O)c2ccc(C)c(Br)c2)C(=O)NCc2cccc(CC(=O)N[C@H](C(=O)N3C[C@H](O)C[C@H]3C(=O)N[C@H](C)c3ccc(-c4scnc4C)cc3)C(C)(C)C)c2)ccc1O` ({Phenylacetyl(4-OH,3-OMe)}-F[X1]K(Benzoyl(3-Br,4-Me))[NHCH2(1,3-C6H4)CH2CO][Tle][Hyp]-X2), which DC50 [7] is on record?
Its DC50 is 0.0141 µM.

What about the DC50 [8] of the same compound?
The DC50 was 0.0087 µM.

Which results are given for `Cc1ncsc1-c1ccc(CNC(=O)[C@@H]2C[C@@H](O)CN2C(=O)[C@@H](NC(=O)OCC(C)(COCCOCCOCCNC(=O)C[C@@H]2N=C(c3ccc(Cl)cc3)c3c(sc(C)c3C)-n3c(C)nnc32)COCCOCCOCCNC(=O)C[C@@H]2N=C(c3ccc(Cl)cc3)c3c(sc(C)c3C)-n3c(C)nnc32)C(C)(C)C)cc1`?
DC50 [9]: 0.0011 µM; DC50 [10]: 0.0033 µM

Which DC50 [11] does the source give for `Cc1ncsc1-c1ccc([C@H](C)NC(=O)[C@@H]2C[C@@H](O)CN2C(=O)[C@@H](NC(=O)OCC(C)(COCCOCCOCCNC(=O)C[C@@H]2N=C(c3ccc(Cl)cc3)c3c(sc(C)c3C)-n3c(C)nnc32)COCCOCCOCCNc2cc3c(cc2F)C(=O)N(C2CCC(=O)NC2=O)C3=O)C(C)(C)C)cc1` (some centres not stated) here?
The DC50 was 0.0023 µM.

What about the DC50 [12] of the same compound?
Its DC50 is 0.0021 µM.

And the EC50 [13]?
Its EC50 is 0.111 µM.

What about the DC50 [14] of the same compound?
Its DC50 is 0.015 µM.

Which DC50 [15] does the source give for `Cc1ncsc1-c1ccc([C@H](C)NC(=O)[C@@H]2C[C@@H](O)CN2C(=O)[C@@H](NC(=O)CN2CCN(CC(=O)N3CCN(C[C@]4(C)CCC(c5ccc(Cl)cc5)=C(CN5CCN(c6ccc(C(=O)NS(=O)(=O)c7ccc(N[C@H](CCN8C[C@H]9C[C@@H]8CO9)CSc8ccccc8)c(S(=O)(=O)C(F)(F)F)c7)cc6)CC5)C4)CC3)CC2)C(C)(C)C)cc1` here?
The DC50 was 0.0006 µM.

With `Cc1cc(S(=O)(=O)NCCOCCOCCOCCOCCNc2cccc3c2C(=O)N(C2CCC(=O)NC2=O)C3=O)ccc1Nc1ncc(Br)c(Nc2cccc(F)c2C(N)=O)n1` (configuration not stated) as the compound, how does the GR50 [16] read?
Its GR50 is 33.1 nM.

For `Cc1ncsc1-c1ccc(NC(=O)[C@@H]2C[C@@H](O)CN2C(=O)[C@@H](NC(=O)COCCOCCOc2cc(OCC(=O)OC(C)(C)C)ccc2NC(=O)C[C@@H]2N=C(c3ccc(Cl)cc3)c3c(sc(C)c3C)-n3c(C)nnc32)C(C)(C)C)cc1`, which Emax [17] is on record?
Its Emax is 93%.

With `CNC(=O)N1CCc2c(c(N3CCCc4cc(-c5cnn(C)c5)c(C(F)F)cc43)nn2C2CCN(C(=O)CCOCCOCCOCCOCCNc3ccc4c(c3)C(=O)N(C3CCC(=O)NC3=O)C4=O)CC2)C1` (configuration not stated) as the compound, how does the Emax [18] read?
Its Emax is > 100%.

Which DC50 [19] does the source give for `Cc1ncsc1-c1ccc([C@H](C)NC(=O)[C@@H]2C[C@@H](O)CN2C(=O)[C@@H](NC(=O)COCCCOCCNC(=O)C[C@@H]2N=C(c3ccc(Cl)cc3)c3c(sc(C)c3C)-n3c(C)nnc32)C(C)(C)C)cc1` here?
Its DC50 is < 0.005 µM.

What about the IC50 [20] of the same compound?
Its IC50 is < 0.001 µM.

And the IC50 [21]?
The IC50 was < 0.001 µM.

And the IC50 [22]?
Its IC50 is < 0.001 µM.
